According to ChEMBL document CHEMBL4619789, “RAF Kinases in Cancer: A Moving Target and Degradation Therapy” (ACS Med Chem Lett, 2020):

Columns and labels:
[1] = Protac activity at E3 ubiquitin-protein ligase/B-raf V600E mutant in human A375 cells assessed as induction of B-raf V600E degradation measured after 72 hrs by Western cellular assay; assay type: cell-based; conditions: A-375, 72 h
A-375 = assay: Protac activity at E3 ubiquitin-protein ligase/B-raf V600E mutant in human A375 cells assessed as induction of B-raf V600E degradation measured after 72 hrs by Western cellular assay relative to control; assay type: cell-based

SMILES	DC50 [1]	%max (A-375)
Cc1ncsc1-c1ccc([C@H](CO)NC(=O)[C@@H]2C[C@@H](O)CN2C(=O)[C@@H](c2cc(N3CCC(N4CCN(c5ccc(-c6cnc7[nH]cc(C(=O)c8c(F)ccc(NS(=O)(=O)N9CC[C@@H](F)C9)c8F)c7c6)cc5)CC4)CC3)no2)C(C)C)cc1	10 to 50 nM	> 70%
O=C1CCC(N2Cc3cc(N4CCN(Cc5ccc(-c6cnc7[nH]cc(C(=O)c8c(F)ccc(NS(=O)(=O)N9CC[C@@H](F)C9)c8F)c7c6)cc5)CC4)ccc3C2=O)C(=O)N1 (some centres undefined)	< 10 nM	> 70%
Cc1ncsc1-c1ccc(CNC(=O)[C@@H]2C[C@@H](O)CN2C(=O)[C@@H](NC(=O)CN2CCC(CN3CCN(c4ccc(-c5cnc6[nH]cc(C(=O)c7c(F)ccc(NS(=O)(=O)N8CC[C@@H](F)C8)c7F)c6c5)cc4)CC3)CC2)C(C)(C)C)cc1	< 10 nM	> 70%
O=C1CCC(N2Cc3cc(CCCN4CCC5(C4)CN(c4ccc(-c6cnc7[nH]cc(C(=O)c8c(F)ccc(NS(=O)(=O)N9CC[C@@H](F)C9)c8F)c7c6)cc4)C5)ccc3C2=O)C(=O)N1 (some centres undefined)	< 10 nM	< 70%
O=C1CCC(N2Cc3cc(N4CC[C@@H](N5CCN(c6ccc(-c7cnc8[nH]cc(C(=O)c9c(F)ccc(NS(=O)(=O)N%10CC[C@@H](F)C%10)c9F)c8c7)cc6)CC5)C4)ccc3C2=O)C(=O)N1 (some centres undefined)	< 10 nM	< 70%
Cc1ncsc1-c1ccc(CNC(=O)[C@@H]2C[C@@H](O)CN2C(=O)[C@@H](NC(=O)CN2CCN(CC3CCN(c4ccc(-c5cnc6[nH]cc(C(=O)c7c(F)ccc(NS(=O)(=O)N8CC[C@@H](F)C8)c7F)c6c5)cc4)CC3)CC2)C(C)(C)C)cc1	< 10 nM	> 70%
O=C1CCC(N2Cc3cc(N4CC(N5CCN(c6ccc(-c7cnc8[nH]cc(C(=O)c9c(F)ccc(NS(=O)(=O)N%10CC[C@@H](F)C%10)c9F)c8c7)cc6)CC5)C4)ccc3C2=O)C(=O)N1 (some centres undefined)	< 10 nM	< 70%
Cc1ncsc1-c1ccc(CNC(=O)[C@@H]2C[C@@H](O)CN2C(=O)[C@@H](NC(=O)CN2CC(N3CCN(c4ccc(-c5cnc6[nH]cc(C(=O)c7c(F)ccc(NS(=O)(=O)N8CC[C@@H](F)C8)c7F)c6c5)cc4)CC3)C2)C(C)(C)C)cc1	< 10 nM	> 70%
Cc1ncsc1-c1ccc([C@H](C)NC(=O)[C@@H]2C[C@@H](O)CN2C(=O)[C@@H](NC(=O)CN2CCC(CN3CCN(c4ccc(-c5cnc6[nH]cc(C(=O)c7c(F)ccc(NS(=O)(=O)N8CC[C@@H](F)C8)c7F)c6c5)cc4)CC3)CC2)C(C)(C)C)cc1	< 10 nM	> 70%
Cc1ncsc1-c1ccc(CNC(=O)[C@@H]2C[C@@H](O)CN2C(=O)[C@@H](c2cc(OCCN3CCN(c4ccc(-c5cnc6[nH]cc(C(=O)c7c(F)ccc(NS(=O)(=O)N8CC[C@@H](F)C8)c7F)c6c5)cc4)CC3)no2)C(C)C)cc1	< 10 nM	> 70%
O=C1CCC(N2Cc3cc(N4CC(OCC5CCN(c6ccc(-c7cnc8[nH]cc(C(=O)c9c(F)ccc(NS(=O)(=O)N%10CC[C@@H](F)C%10)c9F)c8c7)cc6)CC5)C4)ccc3C2=O)C(=O)N1 (some centres undefined)	< 10 nM	< 70%
O=C1CCC(N2Cc3cc(/C=C/CN4CCN(c5ccc(-c6cnc7[nH]cc(C(=O)c8c(F)ccc(NS(=O)(=O)N9CC[C@@H](F)C9)c8F)c7c6)cc5)CC4)ccc3C2=O)C(=O)N1 (some centres undefined)	< 10 nM	< 70%
